Read-outs that look alike come from different tables or passages of the source.
Columns and labels:
[1] = molecular target: T1, MOR (Homo sapiens (Human), UniProt P35372); assay: Receptor binding, [3H]diprenorphine
[2] = molecular target: hKOR (Homo sapiens (Human), UniProt P41145); assay: Receptor binding, [3H]diprenorphine
[3] = molecular target: humanDOR (Homo sapiens (Human), UniProt P41143); assay: Receptor binding, [3H]diprenorphine
[4] = molecular target: hMOR + Gqi5 (Homo sapiens (Human), UniProt P35372); assay: IP accumulation assay; assay type: cell-based; conditions: % morphine
[5] = molecular target: T2, μOR β-arrestin2 recruitment (Homo sapiens (Human), UniProt P35372); assay: β-Arrestin2 recruitment without GRK2 co-expression (BRET); assay type: cell-based
[6] = molecular target: human μOR β-arrestin2 recruitment + GRK2 (Homo sapiens (Human), UniProt P35372); assay: β-Arrestin2 recruitment with GRK2 co-expression (BRET); assay type: cell-based; conditions: GRK2 co-expressed
[7] = molecular target: T3, μOR (Homo sapiens (Human), UniProt P35372); assay: cell-based; assay type: cell-based
[8] = molecular target: T1, MOR; assay: Functional annotation (MOR agonist / antagonist), method not stated
[9] = molecular target: T3, μOR; assay: BRET-based cAMP accumulation assay (Gi/o signaling, SAR of PZM21-29); assay type: cell-based; conditions: for loss of potency in Gi/o signaling assay: compared to parent reference compound (PZM22)
[10] = molecular target: κOR (Homo sapiens (Human), UniProt P41145); assay type: binding; conditions: no Ki given
[11] = molecular target: nociceptin receptor (Homo sapiens (Human), UniProt P41146); assay: Gi/o Glosensor assay; conditions: read-out: Gi/o (Glosensor) Emax (%) nociceptin
[12] = molecular target: T2, μOR β-arrestin2 recruitment; assay: β-Arrestin recruitment, PathHunter enzyme complementation assay (DiscoveRx OPRM1 CHO-K1); assay type: cell-based; conditions: read-out: Arrestin recruitment (PathHunter) Emax (%) μOR
[13] = read-out: binding affinity Ki [nM] hDOR

humanDOR, sequence (P41143 whole entry): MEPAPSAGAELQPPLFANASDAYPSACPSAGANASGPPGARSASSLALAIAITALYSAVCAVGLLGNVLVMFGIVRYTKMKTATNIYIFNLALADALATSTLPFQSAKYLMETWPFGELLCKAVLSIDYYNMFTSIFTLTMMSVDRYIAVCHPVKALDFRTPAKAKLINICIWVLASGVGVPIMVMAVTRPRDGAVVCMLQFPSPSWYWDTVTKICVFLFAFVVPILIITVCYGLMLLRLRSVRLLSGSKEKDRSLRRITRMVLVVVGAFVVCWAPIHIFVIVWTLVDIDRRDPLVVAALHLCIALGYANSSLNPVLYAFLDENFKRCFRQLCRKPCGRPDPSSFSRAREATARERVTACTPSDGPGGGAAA
T1 sequence (P35372 whole entry): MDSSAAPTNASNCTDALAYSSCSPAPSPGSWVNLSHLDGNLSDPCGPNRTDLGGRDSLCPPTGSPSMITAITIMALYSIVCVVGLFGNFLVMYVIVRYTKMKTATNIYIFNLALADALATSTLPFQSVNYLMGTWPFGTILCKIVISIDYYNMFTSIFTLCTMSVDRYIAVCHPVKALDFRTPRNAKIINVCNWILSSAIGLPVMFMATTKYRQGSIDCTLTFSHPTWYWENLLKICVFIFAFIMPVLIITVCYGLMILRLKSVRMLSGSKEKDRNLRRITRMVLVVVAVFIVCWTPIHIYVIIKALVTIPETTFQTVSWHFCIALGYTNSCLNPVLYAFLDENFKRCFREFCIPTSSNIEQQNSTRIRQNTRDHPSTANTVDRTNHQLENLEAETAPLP
hKOR, sequence (P41145 whole entry): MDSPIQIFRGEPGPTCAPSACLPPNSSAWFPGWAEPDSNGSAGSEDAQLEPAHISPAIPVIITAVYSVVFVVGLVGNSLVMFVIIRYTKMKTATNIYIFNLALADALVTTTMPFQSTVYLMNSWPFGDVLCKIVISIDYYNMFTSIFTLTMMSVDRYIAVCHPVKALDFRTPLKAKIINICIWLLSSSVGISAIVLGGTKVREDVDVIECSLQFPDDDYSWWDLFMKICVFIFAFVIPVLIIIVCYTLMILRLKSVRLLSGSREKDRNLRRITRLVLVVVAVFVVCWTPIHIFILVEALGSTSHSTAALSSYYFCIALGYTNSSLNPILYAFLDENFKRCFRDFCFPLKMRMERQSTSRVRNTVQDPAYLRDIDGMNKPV

CC(Cc1csc2ccccc12)NC(=O)NC[C@H](Cc1ccc(O)cc1)N(C)C (mixture of isomers) [DD 63L-RS]
Ki ([1]; binding affinity Ki [nM] hMOR): 14 nM
Ki ([1]; hMOR [3H]dyprenorphine Ki): 16 ± 1.4 nM
Ki ([2]; binding affinity Ki [nM] hKOR): 19 nM
Ki ([2]; hKOR [3H]dyprenorphine Ki): 14 ± 0.71 nM
Ki [3]: 44 ± 1.4 nM
Ki [3, 13]: 44 nM

C[C@H](Cc1ccsc1)NC(=O)NC[C@H](Cc1ccc(O)cc1)N(C)C (stereo in doubt) [BD 122LR]
Ki ([2]; binding affinity Ki [nM] hKOR): 190 nM
Ki ([2]; hKOR [3H]dyprenorphine Ki): 190 ± 23 nM
hMOR + Gqi5 IP accumulation assay efficacy a [4]: a: 17%
Ki [3]: 88 ± 16 nM
Ki [3, 13]: 88 nM

Cc1cc(O)cc(C)c1C[C@@H](CNC(=O)N[C@H](C)Cc1ccsc1)N(C)C [BD 131LR, 1-((S)-2-(dimethylamino)-3-(4-hydroxy-2,6-dimethylphenyl)propyl)-3-((R)-1-(thiophen-3-yl)propan-2-yl)urea]
hMOR + Gqi5 IP accumulation assay efficacy a @ 10 μM ([4]; @ 10 μM): @ 10 μM a: 10%

CN(CCO)[C@H](CNC(=O)NCCc1ccccc1)Cc1ccc(O)cc1 [DD186, (S)-1-(2-((2-hydroxyethyl)(methyl)amino)-3-(4-hydroxyphenyl)propyl)-3-phenethylurea]
Ki [1]: 970 nM
Ki [2]: 1300 nM
Ki [3]: 1800 nM

C[C@@H](Cc1ccsc1)NC(=O)NC[C@H](Cc1ccc(O)cc1)N(C)Cc1ccccc1 [DD187, 1-((S)-2-(benzyl(methyl)amino)-3-(4-hydroxyphenyl)propyl)-3-((S)-1-(thiophen-3-yl)propan-2-yl)urea]
Ki [1]: 220 nM
Ki [2]: 210 nM
Ki [3]: 720 nM

COc1ccccc1CCNC(=O)NC[C@H](Cc1ccc(O)cc1)N(C)C [DD198, (S)-1-(2-(dimethylamino)-3-(4-hydroxyphenyl)propyl)-3-(2-methoxyphenethyl)urea]
Ki ([1]; binding affinity Ki [nM] hMOR): 22 nM
Ki ([2]; binding affinity Ki [nM] hKOR): 140 nM
Ki [3]: 150 nM

COc1cccc(CCNC(=O)NC[C@H](Cc2ccc(O)cc2)N(C)C)c1 [DD200, (S)-1-(2-(dimethylamino)-3-(4-hydroxyphenyl)propyl)-3-(3-methoxyphenethyl)urea]
Ki [1]: 110 nM
Ki [2]: 1300 nM
Ki [3]: 220 nM

COc1ccc(CCNC(=O)NC[C@H](Cc2ccc(O)cc2)N(C)C)cc1 [DD201, (S)-1-(2-(dimethylamino)-3-(4-hydroxyphenyl)propyl)-3-(4-methoxyphenethyl)urea]
Ki [1]: 330 nM
Ki [2]: 1500 nM
Ki [3]: 10000 nM

CN(C)[C@H](CNC(=O)NCCc1ccsc1)Cc1ccc(O)cc1 [DD 16, (S)-1-(2-(dimethylamino)-3-(4-hydroxyphenyl)propyl)-3-(2-(thiophen-3-yl)ethyl)urea]
Arrestin pEC50 [5]: 6.387
Arrestin + GRK2 pEC50 [6]: 6.843
Gi/o pEC50 [7]: 8.122
EC50 ([8]; read-out: MOR agonist (potency printed under structure)): 58 nM

Cc1cc(O)cc(C)c1C[C@@H](CNC(=O)NCCc1ccsc1)N(C)C [DD 34L, (S)-1-(2-(dimethylamino)-3-(4-hydroxy-2,6-dimethylphenyl)propyl)-3-(2-(thiophen-3-yl)ethyl)urea]
hMOR + Gqi5 IP accumulation assay efficacy a [4]: a: <5%
functional mode [8]: DD 34L (ANTAGONIST) [drawing 446]

C[C@@H](Cc1csc2ccccc12)NC(=O)NC[C@H](Cc1ccc(O)cc1)N(C)C [DD 63L-LB]
Arrestin pEC50 [5]: 6.401
Arrestin + GRK2 pEC50 [6]: 7.086
Gi/o pEC50 [7]: 8.244

CN(C)[C@H](CNC(=S)NCCc1ccsc1)Cc1ccc(O)cc1 [DD 81, (S)-1-(2-(dimethylamino)-3-(4-hydroxyphenyl)propyl)-3-(2-(thiophen-3-yl)ethyl)thiourea]
Arrestin pEC50 [5]: 7.604
Arrestin + GRK2 pEC50 [6]: 7.173
Gi/o pEC50 [7]: 7.821

CN(C)[C@H](CNC(=O)NCCc1ccccc1)Cc1ccc(O)cc1 [DD 90]
Arrestin pEC50 [5]: 7.272
Arrestin + GRK2 pEC50 [6]: 6.841
Gi/o pEC50 [7]: 8.371

CN(CCc1ccccc1)C(=O)NC[C@H](Cc1ccc(O)cc1)N(C)C [DD 102]
Arrestin pEC50 [5]: 5.703
Arrestin + GRK2 pEC50 [6]: 5.824
Gi/o pEC50 [7]: 7.421

CN(C[C@H](Cc1ccc(O)cc1)N(C)C)C(=O)NCCc1ccccc1 [DD 108]
Arrestin pEC50 [5]: 5.327
Arrestin + GRK2 pEC50 [6]: 5.826
Gi/o pEC50 [7]: 7.455

C[C@@H](Cc1ccsc1)NC(=O)NC[C@H](Cc1ccc(O)c(CO)c1)N(C)C [DD 131, 1-((S)-2-(dimethylamino)-3-(4-hydroxy-3-(hydroxymethyl)phenyl)propyl)-3-((S)-1-(thiophen-3-yl)propan-2-yl)urea]
Arrestin pEC50 [5]: 6.639
Arrestin + GRK2 pEC50 [6]: 6.671
Gi/o pEC50 [7]: 8.1

CN(C)[C@H](CNC(=O)NCCCN1C(=O)C=CC1=O)Cc1ccc(O)cc1 [DD 138, (S)-1-(2-(dimethylamino)-3-(4-hydroxyphenyl)propyl)-3-(3-(2,5-dioxo-2,5-dihydro-1H-pyrrol-1-yl)propyl)urea]
Ki ([1]; binding affinity Ki [nM] hMOR): 580 nM

Cc1cc(O)cc(C)c1C[C@@H](CNC(=O)NCCN1C(=O)C=CC1=O)N(C)C [DD 144, (S)-1-(2-(dimethylamino)-3-(4-hydroxy-2,6-dimethylphenyl)propyl)-3-(2-(2,5-dioxo-2,5-dihydro-1H-pyrrol-1-yl)ethyl)urea]
functional mode [8]: DD 144 (ANTAGONIST, Covalent) [drawing 452]

CN(C)[C@H](CNC(=O)NCCc1cn(CCOCCOCCOCCOCCOCCNC(=O)CCCC[C@@H]2SC[C@@H]3NC(=O)N[C@@H]32)nn1)Cc1ccc(O)cc1 [DD 170, N-(17-(4-(2-(3-((S)-2-(dimethylamino)-3-(4-hydroxyphenyl)propyl)ureido)ethyl)-1H-1,2,3-triazol-1-yl)-3,6,9,12,15-pentaoxaheptadecyl)-5-((3aS,4S,6aR)-2-oxohexahydro-1H-thieno[3,4-d]imidazol-4-yl)pentanamide]
Ki ([1]; read-out: binding affinity Ki [nM] hMOR): 13000 nM

CN(C)[C@H](CNC(=O)NCCc1ccccc1F)Cc1ccc(O)cc1 [DDLM-08, (S)-1-(2-(dimethylamino)-3-(4-hydroxyphenyl)propyl)-3-(2-fluorophenethyl)urea]
Ki ([1]; binding affinity Ki [nM] hMOR): 43 nM
Ki ([2]; binding affinity Ki [nM] hKOR): 440 nM
Ki [3]: 53 nM

CN(C)[C@H](CNC(=O)NCCc1cccc(F)c1)Cc1ccc(O)cc1 [DDLM-10, (S)-1-(2-(dimethylamino)-3-(4-hydroxyphenyl)propyl)-3-(3-fluorophenethyl)urea]
Ki ([1]; binding affinity Ki [nM] hMOR): 36 nM
Ki ([2]; binding affinity Ki [nM] hKOR): 170 nM
Ki [3]: 250 nM

CN(C)[C@H](CNC(=O)NCCc1ccc(F)cc1)Cc1ccc(O)cc1 [DDLM-15, (S)-1-(2-(dimethylamino)-3-(4-hydroxyphenyl)propyl)-3-(4-fluorophenethyl)urea]
Ki ([1]; binding affinity Ki [nM] hMOR): 27 nM
Ki ([2]; binding affinity Ki [nM] hKOR): 190 nM
Ki [3]: 250 nM

CN(CC1CC1)[C@H](CNC(=O)NCCc1ccccc1)Cc1ccc(O)cc1 [PZM27, (S)-1-(2-((Cyclopropylmethyl)(methyl)amino)-3-(4-hydroxyphenyl)propyl)-3-phenethylurea×CF3COOH]
agonist efficacy / potency in Gi/o signaling assay [9]: decreased efficacy
loss of potency in Gi/o signaling assay [9]: 30 fold

CN(C=O)[C@H](CNC(=O)NCCc1ccccc1)Cc1ccc(O)cc1 [PZM28, (S)—N-(1-(4-Hydroxyphenyl)-3-(3-phenethylureido)propan-2-yl)-N-methylformamide]
loss of potency in Gi/o signaling assay [9]: 1000 fold

CN(C)[C@H](CNC(=O)NCCc1cn(CCSSCCN=[N+]=[N-])nn1)Cc1ccc(O)cc1 [PZM29, (S)-1-(2-(1-(2-((2-Azidoethyl)disulfanyl)ethyl)-1H-1,2,3-triazol-4-yl)ethyl)-3-(2-(dimethylamino)-3-(4-hydroxyphenyl)propyl)urea×CF3COOH]
agonist efficacy / potency in Gi/o signaling assay [9]: retains its efficacy as an agonist

CN(Cc1nnc(C2CC2)n1C)C(=O)NC[C@@H](Cc1ccccc1)N(C)C [compound 10]
κOR binding, given as <50% [10]: <50%

CN(C)[C@@H](CNC(=O)NC[C@@H](O)c1cnn(C)c1)Cc1ccccc1 [compound 11]
κOR binding, given as <50% [10]: <50%

C[C@H](Cc1ccsc1)NC(=O)NC[C@@H](Cc1ccccc1)N(C)C [compound 12]
Emax [11]: 43%
Emax ([7]; read-out: Gi/o (Glosensor) Emax (%) μOR): 88%
Emax [12]: 9.4%

Cc1nc(CNC(=O)NC[C@@H](Cc2ccccc2)N(C)C)sc1C [compound 15]
κOR binding, given as <50% [10]: <50%
